pIC50: −log10 of the molar value.
How the values were obtained:
IP receptor = target: T1, IP receptor (Homo sapiens, UniProt P43119); experiment: Iloprost-induced cAMP production assay in HEL cells (Assay 2); format: cell-based; settings: read-out: Activity grade assay 2
T1 construct: HEL cells were collected with centrifugation and washed with cAMP assay buffer; host or cells: HEL 92.1.7 human erythroleukemia cells
Procedure: [Iloprost-Induced cAMP Production Assay in HEL Cells] (Assay 2)
HEL cells were collected with centrifugation and washed with cAMP assay buffer (CAB: Hank's balanced salt solution, 17 mM Hepes, 0.1% bovine serum albumin, 1 mM IBMX, 0.4% DMSO, and 1 mM L-ascorbic acid sodium salt (pH 7.4)). Cells were suspended at the density of 2.5×10^5 cells/ml in CAB, and twenty thousand cells in 80 μl aliquot of cell suspension were put in a well of 96 well plate (Falcon). Then, 10 μl of compound solution diluted with 1% DMSO in CAB or buffer alone was added. The plate was incubated at 37° C. for 30 min. Then, another 10 μl containing 100 nM iloprost in CAB or buffer alone was added and further incubated at 37° C. for 30 min. cAMP content in the well was measured by a cAMP ELISA kit (Applied Biosystems, USA).
Results of Iloprost-induced cAMP production assay (Assay2) are shown in Examples and tables of the Examples below. For practical reasons, the compounds are grouped in three classes of activity as follows: A(=or<)0.1μM<B(=or<)1μM<C

T1 sequence (P43119 whole entry): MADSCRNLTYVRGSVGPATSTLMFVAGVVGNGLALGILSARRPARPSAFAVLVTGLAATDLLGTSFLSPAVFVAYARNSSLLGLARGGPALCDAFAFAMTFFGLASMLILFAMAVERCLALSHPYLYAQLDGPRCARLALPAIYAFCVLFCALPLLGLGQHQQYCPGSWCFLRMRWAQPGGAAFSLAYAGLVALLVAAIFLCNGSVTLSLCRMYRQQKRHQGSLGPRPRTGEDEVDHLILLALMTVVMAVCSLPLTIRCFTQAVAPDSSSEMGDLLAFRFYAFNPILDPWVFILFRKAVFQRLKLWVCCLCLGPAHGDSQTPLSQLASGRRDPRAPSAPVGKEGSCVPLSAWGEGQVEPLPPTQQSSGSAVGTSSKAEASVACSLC

| SMILES | pIC50 (IP receptor) | melting point |
| --- | --- | --- |
| O=C(N[C@@H](Cc1ccccc1)C(=O)O)c1ccc2cc(OCc3ccccc3)ccc2c1 (single isomer, unassigned) [Example 1-1, N-(6-Benzyloxy-2-naphthoyl)phenylalanine] | > 7.00 | 230 °C |
| O=C(NC(CO)C(=O)O)c1ccc2cc(OCc3ccccc3)ccc2c1 (centres unmarked) [Example 1-2] | < 6.00 | 196 to 198 °C |
| O=C(NC(Cc1ccc(C(F)(F)F)cc1)C(=O)O)c1ccc2cc(OCc3ccccc3)ccc2c1 (centres unmarked) [Example 1-3] | > 7.00 | 212 to 214 °C (dec.) |
| O=C(NC(Cc1ccccc1)C(=O)O)c1ccc2cc(OCCOc3ccccc3)ccc2c1 (centres unmarked) [Example 1-4] | 6.00 to 7.00 | 225 to 227 °C |
| O=C(NC(Cc1ccccc1)C(=O)O)c1ccc2cc(OCc3ccc(F)cc3)ccc2c1 (centres unmarked) [Example 1-5] | > 7.00 | 197 °C |
| O=C(NC(Cc1ccccc1)C(=O)O)c1ccc2cc(OCc3cccc(F)c3)ccc2c1 (centres unmarked) [Example 1-6] | > 7.00 | 197 to 199 °C |
| O=C(NC(Cc1ccccc1)C(=O)O)c1ccc2cc(OCc3ccccc3F)ccc2c1 (centres unmarked) [Example 1-7] | > 7.00 | 180 to 182 °C |
| O=C(NC(Cc1ccccc1)C(=O)O)c1ccc2cc(OCc3cccnc3)ccc2c1 (centres unmarked) [Example 1-8] | > 7.00 | 217 °C |
| O=C(NC(Cc1ccccc1)C(=O)O)c1ccc2cc(OCc3ccccn3)ccc2c1 (centres unmarked) [Example 1-9] | 6.00 to 7.00 | 214 °C |
| O=C(NC(Cc1ccccc1)C(=O)O)c1ccc2cc(OCc3ccc(F)c(F)c3)ccc2c1 (centres unmarked) [Example 1-10] | > 7.00 | 185 °C |
| O=C(NC(Cc1ccccc1)C(=O)O)c1ccc2cc(OCCn3cccc3)ccc2c1 (centres unmarked) [Example 1-11] | > 7.00 | 168 to 169 °C |
| O=C(NC(Cc1ccccc1)C(=O)O)c1ccc2cc(OCc3ccncc3)ccc2c1 (centres unmarked) [Example 1-12] | > 7.00 | 220 to 221 °C |
| O=C(NC(Cc1ccccc1C(F)(F)F)C(=O)O)c1ccc2cc(OCc3ccccc3)ccc2c1 (centres unmarked) [Example 1-13] | 6.00 to 7.00 |  |
| O=C(NC(Cc1cccc(C(F)(F)F)c1)C(=O)O)c1ccc2cc(OCc3ccccc3)ccc2c1 (centres unmarked) [Example 1-14] | > 7.00 |  |
| O=C(NC(Cc1c[nH]c2ccccc12)C(=O)O)c1ccc2cc(OCc3ccccc3)ccc2c1 (centres unmarked) [Example 1-15] | > 7.00 |  |
| COc1ccc(CC(NC(=O)c2ccc3cc(OCc4ccccc4)ccc3c2)C(=O)O)cc1 (centres unmarked) [Example 1-16] | > 7.00 |  |
| COc1cc(CC(NC(=O)c2ccc3cc(OCc4ccccc4)ccc3c2)C(=O)O)ccc1O (centres unmarked) [Example 1-17] | > 7.00 |  |
| O=C(NC(C(=O)O)C(O)c1ccccc1)c1ccc2cc(OCc3ccccc3)ccc2c1 (centres unmarked) [Example 1-18] | > 7.00 |  |
| O=C(NC(Cc1ccccc1)C(=O)O)c1ccc2cc(OCCc3ccccc3)ccc2c1 (centres unmarked) [Example 1-19] | > 7.00 | 144 °C |

| SMILES | pIC50 (IP receptor) | melting point |
| --- | --- | --- |
| O=C(NC(Cc1ccc(Cl)cc1)C(=O)O)c1ccc2cc(OCc3ccccc3)ccc2c1 (centres unmarked) [Example 1-20] | > 7.00 | 202 to 204 °C |
| O=C(NC(Cc1cccc(F)c1)C(=O)O)c1ccc2cc(OCc3ccccc3)ccc2c1 (centres unmarked) [Example 1-21] | > 7.00 | 188 to 191 °C |
| O=C(NC(Cc1ccc(F)cc1)C(=O)O)c1ccc2cc(OCc3ccccc3)ccc2c1 (centres unmarked) [Example 1-22] | > 7.00 | 214 to 216 °C |
| O=C(NC(Cc1ccccc1)C(=O)O)c1ccc2cc(OCc3ccccc3Cl)ccc2c1 (centres unmarked) [Example 1-23] | > 7.00 | 215 °C |
| O=C(NC(Cc1ccccc1)C(=O)O)c1ccc2cc(OCc3cccc(Cl)c3)ccc2c1 (centres unmarked) [Example 1-24] | > 7.00 | 187 °C |
| O=C(NC(Cc1ccccc1)C(=O)O)c1ccc2cc(OCc3ccc(Cl)cc3)ccc2c1 (centres unmarked) [Example 1-25] | 6.00 to 7.00 | 226 °C |
| O=C(NC(Cc1ccccc1)C(=O)O)c1ccc2cc(OCc3ccccc3C(F)(F)F)ccc2c1 (centres unmarked) [Example 1-26] | 6.00 to 7.00 | 167 °C |
| O=C(NC(Cc1ccccc1)C(=O)O)c1ccc2cc(OCc3cccc(C(F)(F)F)c3)ccc2c1 (centres unmarked) [Example 1-27] | < 6.00 | 158 °C |
| O=C(NC(Cc1ccccc1)C(=O)O)c1ccc2cc(OCc3ccc(C(F)(F)F)cc3)ccc2c1 (centres unmarked) [Example 1-28] | < 6.00 | 224 °C |
| COc1ccccc1COc1ccc2cc(C(=O)NC(Cc3ccccc3)C(=O)O)ccc2c1 (centres unmarked) [Example 1-29] | > 7.00 | 169 °C |
| COc1cccc(COc2ccc3cc(C(=O)NC(Cc4ccccc4)C(=O)O)ccc3c2)c1 (centres unmarked) [Example 1-30] | > 7.00 | 163 °C |
| COc1ccc(COc2ccc3cc(C(=O)NC(Cc4ccccc4)C(=O)O)ccc3c2)cc1 (centres unmarked) [Example 1-31] | < 6.00 | 188 °C |
| O=C(NC(Cc1ccccc1)C(=O)O)c1ccc2cc(OCc3ccc(Cl)c(Cl)c3)ccc2c1 (centres unmarked) [Example 1-32] | 6.00 to 7.00 | 202 °C |
| O=C(NC(Cc1ccccc1)C(=O)O)c1ccc2cc(OCc3cccc(Cl)c3Cl)ccc2c1 (centres unmarked) [Example 1-33] | > 7.00 | 211 °C |
| O=C(NC(Cc1ccccc1)C(=O)O)c1ccc2cc(OCc3cc(Cl)cc(Cl)c3)ccc2c1 (centres unmarked) [Example 1-34] | > 7.00 | 180 °C |
| COc1cc(COc2ccc3cc(C(=O)NC(Cc4ccccc4)C(=O)O)ccc3c2)cc(OC)c1 (centres unmarked) [Example 1-35] | > 7.00 | 140 °C |
| O=C(NC(Cc1ccccc1)C(=O)O)c1ccc2cc(OCc3cccc(OC(F)(F)F)c3)ccc2c1 (centres unmarked) [Example 1-36] | 6.00 to 7.00 | 157 °C |
| O=C(NC(Cc1ccccc1)C(=O)O)c1ccc2cc(OCc3ccccc3OC(F)(F)F)ccc2c1 (centres unmarked) [Example 1-37] | < 6.00 | 158 °C |
| COc1cccc(COc2ccc3cc(C(=O)NC(Cc4ccccc4)C(=O)O)ccc3c2)c1OC (centres unmarked) [Example 1-38] | < 6.00 | 161 °C |

| SMILES | pIC50 (IP receptor) | melting point |
| --- | --- | --- |
| Cc1c(COc2ccc3cc(C(=O)NC(Cc4ccccc4)C(=O)O)ccc3c2)cccc1[N+](=O)[O-] (centres unmarked) [Example 1-39] | 6.00 to 7.00 | 202 °C |
| Cc1ccc(C)c(COc2ccc3cc(C(=O)NC(Cc4ccccc4)C(=O)O)ccc3c2)c1 (centres unmarked) [Example 1-40] | 6.00 to 7.00 | 210 °C |
| O=C(NC(Cc1ccccc1)C(=O)O)c1ccc2cc(OCc3c(Cl)cccc3Cl)ccc2c1 (centres unmarked) [Example 1-41] | 6.00 to 7.00 | 245 °C |
| O=C(NC(Cc1ccccc1)C(=O)O)c1ccc2cc(OCc3ccc(Cl)cc3Cl)ccc2c1 (centres unmarked) [Example 1-42] | < 6.00 | 202 °C |
| O=C(NC(Cc1ccccn1)C(=O)O)c1ccc2cc(OCc3ccccc3)ccc2c1 (centres unmarked) [Example 1-43] | 6.00 to 7.00 | 172 to 173 °C (dec.) |
| O=C(NC(Cc1cccs1)C(=O)O)c1ccc2cc(OCc3ccccc3)ccc2c1 (centres unmarked) [Example 1-44] | > 7.00 | 200 to 202 °C |
| O=C(NC(Cc1ccc(Br)cc1)C(=O)O)c1ccc2cc(OCc3ccccc3)ccc2c1 (centres unmarked) [Example 1-45] | > 7.00 | 219 to 220 °C |
| O=C(NC(Cc1ccc([N+](=O)[O-])cc1)C(=O)O)c1ccc2cc(OCc3ccccc3)ccc2c1 (centres unmarked) [Example 1-46] | > 7.00 | 227 to 228 °C |
| O=C(NC(Cc1cccc(O)c1)C(=O)O)c1ccc2cc(OCc3ccccc3)ccc2c1 (centres unmarked) [Example 1-47] | > 7.00 | 214 °C |
| O=C(NC(Cc1cccc2ccccc12)C(=O)O)c1ccc2cc(OCc3ccccc3)ccc2c1 (centres unmarked) [Example 1-48] | > 7.00 | 218 °C |
| O=C(NC(Cc1c[nH]c2ccc(O)cc12)C(=O)O)c1ccc2cc(OCc3ccccc3)ccc2c1 (centres unmarked) [Example 1-49] | > 7.00 | 261 to 262 °C (dec.) |
| O=C(NC(Cc1ccccc1F)C(=O)O)c1ccc2cc(OCc3ccccc3)ccc2c1 (centres unmarked) [Example 1-50] | > 7.00 | 211 to 213 °C |
| O=C(NC(Cc1ccccc1)C(=O)O)c1ccc2cc(OCc3ccccc3Br)ccc2c1 (centres unmarked) [Example 1-51] | > 7.00 | 206 to 207 °C |
| O=C(NC(Cc1ccccc1)C(=O)O)c1ccc2cc(OCc3cccc(Br)c3)ccc2c1 (centres unmarked) [Example 1-52] | > 7.00 | 194 °C |
| O=C(NC(Cc1ccccc1)C(=O)O)c1ccc2cc(OCc3ccc(Br)cc3)ccc2c1 (centres unmarked) [Example 1-53] | < 6.00 | 232 °C |
| Cc1ccccc1COc1ccc2cc(C(=O)NC(Cc3ccccc3)C(=O)O)ccc2c1 (centres unmarked) [Example 1-54] | > 7.00 | 204 °C |
| Cc1cccc(COc2ccc3cc(C(=O)NC(Cc4ccccc4)C(=O)O)ccc3c2)c1 (centres unmarked) [Example 1-55] | > 7.00 | 184 to 185 °C |
| Cc1ccc(COc2ccc3cc(C(=O)NC(Cc4ccccc4)C(=O)O)ccc3c2)cc1 (centres unmarked) [Example 1-56] | 6.00 to 7.00 | 212 °C |
| O=C(N[C@@H](Cc1ccccc1)C(=O)O)c1ccc2cc(OCc3ccccc3)ccc2c1 [Example 2-2, N-[6-(benzyloxy)-2-naphthoyl]-L-phenylalanine] | < 6.00 |  |

From patent publication US20060166989A1, “2-naphthamide derivatives” (Bayer Healthcare AG, priority 2002, published 2006)
